In patent publication US6846678B2, “Gamma sterilized buffer solutions for pH measurement” (Terumo Cardiovascular Systems, Co.-Tustin, priority 2002, dated 2005):

How the values were obtained:
[1] = Effect of gamma sterilization (25-35 kGy) on preservatives in buffer; assay type: physicochemical; details: for Result post-gamma sterilization: gamma sterilization 25-35 kGy
Method: In a preferred embodiment, sterilization is performed by use of a gamma irradiation system having a Cobalt-60 source. The system used in the examples and data presented below is a dual source (i.e. two source racks), affording continuous irradiation and wet storage. The sterilization range was 25-35 kGy, set by adjusting the time of exposure to a constant radiation source. All sterilization dose ranges were confirmed by dosimeters.
Cf. Table 3. We examined a variety of preservatives for use in this buffer.

six different organisms = details: over eight weeks, unsterile buffer
Source text: We tested the Buffers according to USP protocol for “Antimicrobial Preservatives Effectiveness” (United States Pharmacopeia, Volume XXIV, Microbiological Tests, Section (51) Antimicrobial Effectiveness Testing, pp. 1809-11, Official Jan. 1, 2000).

Compound	Result post-gamma sterilization [1]	effect on the final buffer formulation with regard to pH level, stability, and cosmetic factors ([1]; gamma sterilization cycle)	counts for five of the organisms (six different organisms)	log reduction for the sixth organism (six different organisms) [log]
Benzalkonium chloride	Precipitated			
COC(=O)c1ccc(O)cc1 [Methyl paraben]	Acidified			
CCCOC(=O)c1ccc(O)cc1 [Propyl paraben]	Precipitated			
O=C1C(N(CO)C(=O)NCO)N(CO)C(=O)N1CO (stereo not shown) [Germall II]	Strong acidification, evolved CO2			
Cl/C=C\C[N+]12CN3CN(CN(C3)C1)C2.[Cl-] [Dowicil 200]	Acidified, drifted			
CC(C)(C)CC(C)(C)c1ccc(OCCOCC[N+](C)(C)Cc2ccccc2)cc1 [Benzethonium chloride]	Acceptable	minimal effect	no counts	> 3
N=C(NCCCCCCNC(=N)NC(=N)Nc1ccc(Cl)cc1)NC(=N)Nc1ccc(Cl)cc1 [Chlorohexidine]	Precipitated			
